This experiment relates to laser-induced choroidal neovascularization. Description: Therapeutic study in laser-induced choroidal neovascularization model, CNV neovessel area. The settings on record: free drug, IV day 1, 3, 5; equal dose of doxorubicin. It counts as in vivo, C57BL/6 mice. The source says:
Therapeutic effects of phototriggered activation of nanoparticles in CNV. The mouse model of laser-induced choroidal neovascularization mimics the neovascular aspect of wet AMD, and has been used extensively in studies of that disease. However, unlike the chronic development of wet AMD in human, the laser-induced mouse CNV model is acute—the optimum time point to assess neovessels in this model is between day 7 and day 14. After 14 to 21 days, spontaneous regression begins and lesion size decreases. The dosing regimen in this example was determined accordingly: treatment was initiated on day 7 when the lesions had formed, and its effects were assessed before spontaneous regression would begin on day 14.
In the in vivo therapeutic study, 200 microliters of PBS containing 1 mg of NP-[CPP]-doxo encapsulating 0.02 mg doxorubicin were injected via tail vein one week after photocoagulation (day 1 of treatment), and additional injections were given on day 3 and day 5. […] (The three drug-loaded groups contained equal doses of doxorubicin.) On day 7, mice were euthanized, the size of CNV lesions were assessed by fluorescent imaging of choroidal flat-mounts stained with isolectin GS-IB4 (which labels endothelial cells). […]

For the compound `COc1cccc2c1C(=O)c1c(O)c3c(c(O)c1C2=O)C[C@@](O)(C(=O)CO)C[C@@H]3O[C@H]1C[C@H](N)[C@H](O)[C@H](C)O1` [doxorubicin], the “reduction in neovessel area compared to PBS group” value is given as 26.8%.

Values taken from patent publication US11559586B2, “Nanoparticles for treatment of choroidal neovascularization and other indications” (Children's Medical Center Corporation, priority 2018, dated 2023).
